Consider five compounds from PMC3629081, “Tetrahydropyrazolo[1,5-a]Pyrimidine-3-Carboxamide and N-Benzyl-6′,7′-Dihydrospiro[Piperidine-4,4′-Thieno[3,2-c]Pyran] Analogues with Bactericidal Efficacy against Mycobacterium tuberculosis Targeting MmpL3” (PLoS ONE, 2013).

One test has as its system M. tuberculosis. The test is classed as cell-based, Mycobacterium tuberculosis. Particulars: 10x MIC.
For test [1], the system named is M. tuberculosis H37Rv mutants with MmpL3 mutations. The test is classed as cell-based, Mycobacterium tuberculosis.

Where “and” joins values, the source holds several entries; their conditions need not be identical. Equal values may be shown once.

With `CCc1ccc([C@H]2C[C@@H](C(F)(F)F)n3ncc(C(=O)NCc4ccc(OC)cc4)c3N2)cc1` [Compound 1, (5R,7S)-5-(4-ethylphenyl)-N-(4-methoxybenzyl)-7-(trifluoromethyl)-4,5,6,7-tetrahydropyrazolo[1,5-a]pyrimidine-3-carboxamide], the “frequency of spontaneous resistant mutant generation” value in the test with M. tuberculosis is 6.4×10^−8 mutant/cfus. As for `c1cc2c(s1)CCOC21CCN(Cc2ccc3c(c2)OCCO3)CC1` [Compound 2], the “frequency of spontaneous resistant mutant generation” value with M. tuberculosis is recorded as 3.6×10^−8 mutant/cfus. As for `CC[C@@H](CO)NCCN[C@@H](CC)CO` [Ethambutol], in test [1], the “Ratio MICmut/MICwt” value is 0.5 and 1.0 and 0.8; the “susceptibility of all isolated mutants to classic antitubercular drugs” value (“susceptibility of all isolated mutants” below) was “susceptible”.

On to `CC(=O)NC[C@H]1CN(c2ccc(N3CCOCC3)c(F)c2)C(=O)O1` [Linezolid], for which, in test [1], the “Ratio MICmut/MICwt” value was 0.5 and 1.0; the “susceptibility of all isolated mutants” value is listed as “susceptible”.

In the case of `COc1c(N2C[C@@H]3CCCN[C@@H]3C2)c(F)cc2c(=O)c(C(=O)O)cn(C3CC3)c12` [Moxifloxacin], in test [1], the “Ratio MICmut/MICwt” value is 1.0 and 0.5; the “susceptibility of all isolated mutants” value was “susceptible”.
